Measurements: PubChem BioAssay AID1259407 (Chemical Carcinogenesis Research Information System (CCRIS), 2018)
Calls of active or inactive are those of the source. How the calls were made is not given here.

System: CCRIS mutagenicity, Ames/micronucleus/aberration tests
Assay: CCRIS mutagenicity studies
[1] = Test System: AMES SALMONELLA TYPHIMURIUM, Strain/Indicator: TA1535, Metabolic Activation: NONE, Method: PREINCUBATION
[2] = Test System: AMES SALMONELLA TYPHIMURIUM, Strain/Indicator: TA98, Metabolic Activation: NONE, Method: STANDARD PLATE
[3] = Test System: AMES SALMONELLA TYPHIMURIUM, Strain/Indicator: TA102, Metabolic Activation: NONE, Method: STANDARD PLATE

Structure (SMILES): FC(F)Cl
- mutagenic call (End Point: IN VITRO CHROMOSOMAL ABERRATIONS, Test System: CHL CELLS, Metabolic Activation: NONE): inactive; negative
- mutagenic call (End Point: IN VITRO CHROMOSOMAL ABERRATIONS, Test System: CHL CELLS, Metabolic Activation: RAT, LIVER, S-9, SODIUM PHENOBARBITAL AND 5,6-BENZOFLAVONE): inactive; negative
- mutagenic call (Test System: AMES SALMONELLA TYPHIMURIUM, Strain/Indicator: TA98, Metabolic Activation: NONE, Method: GAS EXPOSURE): inactive; negative
- mutagenic call (Test System: AMES SALMONELLA TYPHIMURIUM, Strain/Indicator: TA98, Metabolic Activation: RAT LIVER S-9, PHENOBARBITAL AND BETA-NAPHTHOFLAVONE (40%), Method: GAS EXPOSURE): inactive; negative
- mutagenic call (Test System: AMES SALMONELLA TYPHIMURIUM, Strain/Indicator: TA98, Metabolic Activation: RAT, LIVER, S-9, PHENOBARBITAL AND 5,6-BENZOFLAVONE, Method: GAS EXPOSURE): inactive; negative
- mutagenic call (Test System: AMES SALMONELLA TYPHIMURIUM, Strain/Indicator: TA100, Metabolic Activation: RAT LIVER S-9, PHENOBARBITAL AND BETA-NAPHTHOFLAVONE (40%), Method: GAS EXPOSURE): active; positive
- mutagenic call (Test System: AMES SALMONELLA TYPHIMURIUM, Strain/Indicator: TA100, Metabolic Activation: RAT, LIVER, S-9, PHENOBARBITAL AND 5,6-BENZOFLAVONE, Method: GAS EXPOSURE): active; positive
- mutagenic call (Test System: AMES SALMONELLA TYPHIMURIUM, Strain/Indicator: TA1535, Metabolic Activation: NONE, Method: GAS EXPOSURE): active; positive
- mutagenic call (Test System: AMES SALMONELLA TYPHIMURIUM, Strain/Indicator: TA1535, Metabolic Activation: RAT LIVER S-9, PHENOBARBITAL AND BETA-NAPHTHOFLAVONE (40%), Method: GAS EXPOSURE): active; positive
- mutagenic call (Test System: AMES SALMONELLA TYPHIMURIUM, Strain/Indicator: TA1535, Metabolic Activation: RAT, LIVER, S-9, AROCLOR 1254, Method: DESICCATOR): active; positive
- mutagenic call (Test System: AMES SALMONELLA TYPHIMURIUM, Strain/Indicator: TA1535, Metabolic Activation: RAT, LIVER, S-9, PHENOBARBITAL AND 5,6-BENZOFLAVONE, Method: GAS EXPOSURE): active; positive
- mutagenic call (Test System: AMES SALMONELLA TYPHIMURIUM, Strain/Indicator: TA1537, Metabolic Activation: NONE, Method: GAS EXPOSURE): inactive; negative
- mutagenic call (Test System: AMES SALMONELLA TYPHIMURIUM, Strain/Indicator: TA1537, Metabolic Activation: RAT LIVER S-9, PHENOBARBITAL AND BETA-NAPHTHOFLAVONE (40%), Method: GAS EXPOSURE): inactive; negative
- mutagenic call (Test System: AMES SALMONELLA TYPHIMURIUM, Strain/Indicator: TA1537, Metabolic Activation: RAT, LIVER, S-9, PHENOBARBITAL AND 5,6-BENZOFLAVONE, Method: GAS EXPOSURE): inactive; negative
- mutagenic call (Test System: E. COLI, Strain/Indicator: WP2 UVRA, Metabolic Activation: NONE, Method: GAS EXPOSURE): inactive; negative
- mutagenic call (Test System: E. COLI, Strain/Indicator: WP2 UVRA, Metabolic Activation: RAT, LIVER, S-9, PHENOBARBITAL AND 5,6-BENZOFLAVONE, Method: GAS EXPOSURE): inactive; negative
- mutagenic call (Test System: E.COLI, Strain/Indicator: WP2UVRA, Metabolic Activation: NONE, Method: GAS EXPOSURE): inactive; negative
- mutagenic call (Test System: E.COLI, Strain/Indicator: WP2UVRA, Metabolic Activation: RAT LIVER S-9, PHENOBARBITAL AND BETA-NAPHTHOFLAVONE (40%), Method: GAS EXPOSURE): inactive; negative

Structure (SMILES): C=CC[N+](C)(C)CC=C
- mutagenic call (Test System: AMES SALMONELLA TYPHIMURIUM, Strain/Indicator: TA98, Metabolic Activation: NONE, Method: PREINCUBATION): inactive; negative
- mutagenic call (Test System: AMES SALMONELLA TYPHIMURIUM, Strain/Indicator: TA98, Metabolic Activation: RAT LIVER S-9, PHENOBARBITAL AND BETA-NAPHTHOFLAVONE, Method: PREINCUBATION): inactive; negative
- mutagenic call (Test System: AMES SALMONELLA TYPHIMURIUM, Strain/Indicator: TA100, Metabolic Activation: NONE, Method: PREINCUBATION): inactive; negative
- mutagenic call (Test System: AMES SALMONELLA TYPHIMURIUM, Strain/Indicator: TA100, Metabolic Activation: RAT LIVER S-9, PHENOBARBITAL AND BETA-NAPHTHOFLAVONE, Method: PREINCUBATION): inactive; negative
- mutagenic call [1]: inactive; negative
- mutagenic call (Test System: AMES SALMONELLA TYPHIMURIUM, Strain/Indicator: TA1535, Metabolic Activation: RAT LIVER S-9, PHENOBARBITAL AND BETA-NAPHTHOFLAVONE, Method: PREINCUBATION): inactive; negative
- mutagenic call (Test System: AMES SALMONELLA TYPHIMURIUM, Strain/Indicator: TA1537, Metabolic Activation: NONE, Method: PREINCUBATION): inactive; negative
- mutagenic call (Test System: AMES SALMONELLA TYPHIMURIUM, Strain/Indicator: TA1537, Metabolic Activation: RAT LIVER S-9, PHENOBARBITAL AND BETA-NAPHTHOFLAVONE, Method: PREINCUBATION): inactive; negative
- mutagenic call (Test System: E.COLI, Strain/Indicator: WP2UVRA/PKM101, Metabolic Activation: NONE, Method: PREINCUBATION): inactive; negative
- mutagenic call (Test System: E.COLI, Strain/Indicator: WP2UVRA/PKM101, Metabolic Activation: RAT LIVER S-9, PHENOBARBITAL AND BETA-NAPHTHOFLAVONE, Method: PREINCUBATION): inactive; negative

Structure (SMILES): C[n+]1c2ccccc2nc2ccccc21
- mutagenic call [2]: inactive; negative
- mutagenic call (Test System: AMES SALMONELLA TYPHIMURIUM, Strain/Indicator: TA102, Metabolic Activation: NONE, Method: PREINCUBATION): inactive; negative
- mutagenic call [3]: inactive; negative
- mutagenic call [1]: inactive; negative
- mutagenic call (Test System: AMES SALMONELLA TYPHIMURIUM, Strain/Indicator: TA1535, Metabolic Activation: NONE, Method: STANDARD PLATE): inactive; negative
- mutagenic call (Test System: AMES SALMONELLA TYPHIMURIUM, Strain/Indicator: TA1535, Metabolic Activation: RAT, LIVER, S-9, AROCLOR 1254, Method: STANDARD PLATE): inactive; negative
- mutagenic call (Test System: AMES SALMONELLA TYPHIMURIUM, Strain/Indicator: TA1537, Metabolic Activation: NONE, Method: STANDARD PLATE): active; positive
- mutagenic call (Test System: AMES SALMONELLA TYPHIMURIUM, Strain/Indicator: TA1537, Metabolic Activation: RAT, LIVER, S-9, AROCLOR 1254, Method: STANDARD PLATE): active; positive
- mutagenic call (Test System: AMES SALMONELLA TYPHIMURIUM, Strain/Indicator: TA1538, Metabolic Activation: NONE, Method: STANDARD PLATE): inactive; negative
- mutagenic call (Test System: AMES SALMONELLA TYPHIMURIUM, Strain/Indicator: TA1538, Metabolic Activation: RAT, LIVER, S-9, AROCLOR 1254, Method: STANDARD PLATE): inactive; negative
- mutagenic call (Test System: AMES SALMONELLA TYPHIMURIUM, Strain/Indicator: TA1975, Metabolic Activation: NONE, Method: PREINCUBATION): inactive; negative
- mutagenic call (Test System: AMES SALMONELLA TYPHIMURIUM, Strain/Indicator: TA2638, Metabolic Activation: NONE, Method: STANDARD PLATE): inactive; negative
- mutagenic call (Test System: AMES SALMONELLA TYPHIMURIUM, Strain/Indicator: YG3001, Metabolic Activation: NONE, Method: PREINCUBATION): inactive; negative
- mutagenic call (Test System: AMES SALMONELLA TYPHIMURIUM, Strain/Indicator: YG3002, Metabolic Activation: NONE, Method: PREINCUBATION): inactive; negative
- mutagenic call (Test System: AMES SALMONELLA TYPHIMURIUM, Strain/Indicator: YG3003, Metabolic Activation: NONE, Method: PREINCUBATION): inactive; negative
- mutagenic call (Test System: E. COLI, Strain/Indicator: WP2 (PKM101), Metabolic Activation: NONE, Method: STANDARD PLATE): inactive; negative
- mutagenic call (Test System: E. COLI, Strain/Indicator: WP2 UVRA (PKM101), Metabolic Activation: NONE, Method: STANDARD PLATE): active; positive

Structure (SMILES): O=S(=O)(c1ccc(Cl)cc1)c1cc(Cl)c(Cl)cc1Cl
- mutagenic call (End Point: In vivo chromosomal aberrations, Test System: Bone marrow cells, Species: Rat, Strain/Sex: Wistar/Female, Route: Oral): inactive; negative
- mutagenic call (Test System: AMES SALMONELLA TYPHIMURIUM, Strain/Indicator: TA97A, Metabolic Activation: NONE, Method: STANDARD PLATE): inactive; negative
- mutagenic call (Test System: AMES SALMONELLA TYPHIMURIUM, Strain/Indicator: TA97A, Metabolic Activation: RAT, LIVER, S-9, AROCLOR 1254, Method: STANDARD PLATE): inactive; negative
- mutagenic call [2]: inactive; negative
- mutagenic call (Test System: AMES SALMONELLA TYPHIMURIUM, Strain/Indicator: TA98, Metabolic Activation: RAT, LIVER, S-9, AROCLOR 1254, Method: STANDARD PLATE): inactive; negative
- mutagenic call (Test System: AMES SALMONELLA TYPHIMURIUM, Strain/Indicator: TA100, Metabolic Activation: NONE, Method: STANDARD PLATE): inactive; negative
- mutagenic call (Test System: AMES SALMONELLA TYPHIMURIUM, Strain/Indicator: TA100, Metabolic Activation: RAT, LIVER, S-9, AROCLOR 1254, Method: STANDARD PLATE): inactive; negative
- mutagenic call [3]: inactive; negative
- mutagenic call (Test System: AMES SALMONELLA TYPHIMURIUM, Strain/Indicator: TA102, Metabolic Activation: RAT, LIVER, S-9, AROCLOR 1254, Method: STANDARD PLATE): inactive; negative
